What was measured:
[1] = Pharmacokinetics after i.v. administration in rats; format: in vivo; settings: rat, iv, male Wistar rats, 16 mg/kg B.W.
Procedure: A formulation of compound (20R)-I(e) dissolved in saline (0.9% NaCl): propylene glycol:ethanol (5:3:2; v/v/v) was prepared at a concentration of 20 mg/ml.
Nine male Wistar rats (150-200 g) were fasted 8 hours prior to the initiation of the study. At the initiation of the study, the nine rats received 0.8 ml/kg body weight (B.W.) of the dosing formulation by intravenous (i.v.) injection to deliver 16 mg of compound (20R)-I(e)/kg B.W. Blood was collected from three animals at 0 (day-1), 5, 15, 30, 60, 120, 180 and 240 minutes post dosing. At each time point, 1 ml of blood was collected from the orbital sinus in unpreserved Microtainer tubes. Separated serum samples were kept frozen at −80° C. until analysis. The concentration of compound (20R)-I(e) in the serum samples was quantified using a High Performance Liquid Chromatographic method with Mass Spectroscopy detection (LC MS/MS). An internal standard was added to an aliquot of […] of serum sample and extracted using solid phase extraction (SPE). Samples were passed through C18-SPE cartridges then compound (20R)-I(e) and the internal standard were eluted with 1 ml of methanol. Extracts were evaporated to dryness under nitrogen. The residues were reconstituted in […] of methanol:water (8:2; v/v) and analyzed by LC MS/MS. (iii) Results: Summary of the calculated pharmacokinetic parameters for the i.v. administration of a 16 mg/kg B.W. dose of compound (20R)-I(e) is in the Table below. The Area-Under-Curve (AUC) was calculated from T=0 to 240 min. The maximum concentration (Cmax) was determined from the mean serum concentration versus time profile. The elimination half life (T1/2) was calculated from the elimination phase of the concentration versus time profile assuming first order kinetic elimination.

OVCAR-3 cells = test: [3H]-Thymidine proliferation assay with OVCAR-3 cells; format: cell-based; settings: ovarian cancer cells, 6 days, 3H-thymidine incorporation
Procedure: 1. Preparation of Suspension • When OVCAR-3 cells were ˜50% confluent, aspirated media. Washed cells with 1×PBS. Trypsinized with trypsin-EDTA, collected cells from the tissue culture flask, centrifuged (200×g, 5 min) and resuspended in media.
2. Cell Plating. • Counted the cells and adjusted the cell density to 11.4×10^3 to provide 2000 cells in 175 μl (for 1 well). Distributed cell suspension into a 96 well plates at 175 μl (2000 cells) per well. Incubated plate for 24 h at 37° C. in a humidified atmosphere plus 5% CO2. • Substrate addition. • Added 25 μl of compound (final concentration 10^−7 M, 5×10^−8 M 10^−8 M, 5×10^−9 M, 10^−9 M, 10^−10M or 0 M) into each designated well. Incubated plates for 6 days without changing media and drugs at 37° C. in a humidified atmosphere plus 5% CO2.
3. [^3H]-Thymidine incorporation • Added ^3H-thymidine at 0.02 μCi per well and incubated at 37° C. in a humidified atmosphere plus 5% CO2 for 6 h.
4. Plate Harvesting. • Aspirated all media and washed cells with 1×PBS. Trypsinized cells for 30 min at 37° C. in a humidified atmosphere plus 5% CO2. Harvested cells onto a 96 well filter plate (Millipore) using a Tomtec Cell Harvestor, according to manufacturers instructions.
5. Scintillation Counting. • Added 25 μl of scintillation fluid per well. Counted the plate using a scintillation counter. Results: Compounds (20R)-I(a), (20R)-I(c) and (20R)-I(e) all inhibited the proliferation of OVCAR-3 cells.

CYP27A1 = target: T1, CYP27A1 (Homo sapiens, UniProt Q02318); test: CYP27A1 enzyme assay; format: biochemical; settings: read-out: IC50 in the inhibition of CYP27A1
T1 sequence (Q02318 34-531): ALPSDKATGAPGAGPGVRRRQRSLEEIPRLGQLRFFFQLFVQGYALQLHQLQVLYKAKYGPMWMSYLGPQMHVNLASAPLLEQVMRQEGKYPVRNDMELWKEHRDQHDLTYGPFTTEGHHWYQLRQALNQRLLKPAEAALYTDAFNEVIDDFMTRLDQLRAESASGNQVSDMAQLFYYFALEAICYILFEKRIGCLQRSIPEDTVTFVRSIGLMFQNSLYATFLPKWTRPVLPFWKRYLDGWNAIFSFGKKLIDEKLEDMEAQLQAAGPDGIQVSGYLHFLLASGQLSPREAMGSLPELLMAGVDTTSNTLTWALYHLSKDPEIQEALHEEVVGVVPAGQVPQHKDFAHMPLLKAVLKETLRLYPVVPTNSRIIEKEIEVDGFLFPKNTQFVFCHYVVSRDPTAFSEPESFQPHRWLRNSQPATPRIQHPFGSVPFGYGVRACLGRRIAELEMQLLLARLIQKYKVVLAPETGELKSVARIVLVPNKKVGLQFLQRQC

MCF-7 cells = test: [3H]-Thymidine proliferation assay with MCF-7 cells; format: cell-based; settings: breast cancer cells, 3 days, 3H-thymidine incorporation
Procedure: 1. Preparation of Cell Suspension. • When MCF-7 cells were 70-80% confluent, aspirated growth media. Washed the cells with 1×PBS. Trypsinized with trypsin-EDTA from the plate, collected cells from the tissue culture flask, centrifuged (500×g, 5 min) and resuspended in growth media.
2. Cell Plating. • Counted the cells and adjusted the cell density to 25,000/ml. Added 200 μl per well in a 96 well plate. Incubated plate for 24 h at 37° C. in a humidified atmosphere plus 5% CO2. Aspirated used media and replaced with 175 μl per well with proliferation media.
3. Substrate Addition. • Added 25 μl of compound (final concentration 10^−7 M, 5×10^−8 M, 10^−8 M, 5×10^−9 M, 10^−10 M or 0 M) into each designated well. Incubated plates for 3 days at 37° C. in a humidified atmosphere plus 5% CO2.
4. ^3H-Thymidine Incorporation. • Added ^3H-thymidine at 0.02 μCi per well and incubated at 37° C. in a humidified atmosphere plus 5% CO2 for 6 h.
5. Plate Harvesting. • Aspirated all media and washed cells with 1×PBS. Trypsinized cells for 30 min at 37° C. in a humidified atmosphere plus 5% CO2. Harvested cells onto a 96 well filter plate (Millipore) using a Tomtec Cell Harvestor, according to manufacturers instructions.
6. Scintillation Counting. • Added 25 μl of scintillation fluid per well. Counted the plate using a scintillation counter. Results: Compound (20R)-I(e) inhibited MCF-7 cell proliferation.

With C=C1/C(=C\C=C2/CCC[C@]3(C)C([C@H](C)C/C=C/C(=NOC)C(C)(C)C)=CC[C@@H]23)C[C@@H](O)C[C@@H]1O [(20R)-I(e)] the Cmax ([1]; mean serum concentration) was 38.9 ng/mL, the AUC ([1]; serum, T=0 to 240 min) was 39.6 ng·h/mL and the half-life ([1]; serum, first order elimination assumed, read-out: T1/2 (elimination half life) (converted)) was 15 min. The “Inhibition of OVCAR-3 cell proliferation” value (OVCAR-3 cells) was “inhibited”, the IC50 (CYP27A1) was > 1000 nM and the “Inhibition of MCF-7 cell proliferation” value (MCF-7 cells) was “inhibited”.
